Experiments:
[1] = test system: (+)-MK801 binding site of the ionotropic NMDA receptor; experiment: (3H)-(+)-MK801 receptor bonding test on rat cerebral membrane homogenates; conditions: 1 nmol/l (3H)-(+)-MK801, rat brain membrane homogenate; for Percentage inhibition of (3H)-(+)-MK801 binding at 10 μM: 10 μmol/l compound, triple determinations; for Ki: calculated from IC50 by Cheng-Prusoff equation
Protocol: Research to determine the NMDA antagonistic effect of each compound in general formula I was carried out on cerebral membrane homogenates (homogenate of rat brain without cerebellum, pons and medulla oblongata taken from male Wistar rats (Charles River, Sulzfeld, Germany)).
For this purpose, after separating the cerebellum, pons and medulla oblongata, freshly prepared rat brains were macerated in 50 mmol/l of tris/HCl (pH 7.7) with a Polytron homogeniser (model PT3000, Kinematika AG, Littau, Switzerland) at 6000 revolutions per minute (rpm) for 1 minute with ice cooling and centrifuged for 15 minutes at 4° C. and 60,000 g. After decanting and discarding the supernatant, again placing in 50 mmol/l of tris/HCl (pH 7.7) and macerating the membrane pellet with a homogeniser at 2000 rpm for 1 minute, it was centrifuged again for 15 minutes at 4° C. and 60,000 g. The supernatant was again discarding and the membrane pellet homogenised (2000 rpm for 1 minute) in 50 mmol/l of tris/HCl (pH 7.7) and frozen in aliquots at −70° C.
For the receptor bonding test, each aliquot was defrosted and then centrifuged for 15 minutes at 4° C. and 60,000 g. After decanting and discarding the supernatant, the membrane pellet was taken up with bonding test buffer and homogenised (2000 rpm for 1 minute). The bonding test buffer was 5 mmol/l tris/HCl (pH 7.7) supplemented with 30 μmol/l of glycine and 100 μmol/l of glutamic acid.
1 nmol/l of (^3H)-(+)-MK801 ((5R, 10S)-(+)-5-methyl-10,11-dihydro-5H-dibenzo(a,d)cycloheptane-5,10-imine was used as a radioactively marked ligand (NET-972, NEN, Cologne Germany). The proportion of unspecific bonding was determined in the presence of 10 μmol/l of non-radioactively marked (+)-MK801 (RBI/Sigma, Deisenhofen, Germany). In further batches, each of the compounds of general formula I were added in series of concentrations and the displacement of the radioactive ligand out of its specific bond to the NMDA receptor determined. All the batches were subjected to triple determinations. The batches were each incubated for 40 minutes at 25° C. in a water bath and then harvested for determination of the radioactive ligand bound to the cerebral membrane homogenate by means of filtration through glass-fibre filters (GF/B) (Whatman GF/B, Hassel, Munich, Germany). The radioactivity retained by the glass-fibre filter discs was measured in a β counter (Packard TRI-CARB Liquid Scintillation Analyser 2000CA, Packard Instrument, Meriden, Conn. 06450, USA) after adding a scintillator (“Ready Protein” scintillator, Beckmann Coulter GmhH, Krefeld, Germany).
The percentage inhibition of the specific bonding of the ligand (^3H)-(+)-MK801 in the presence of 10 μmol/l of each compound of general formula I resulting from the triple batches is used as a measure of the affinity of the compound for the (+)-MK801 binding site of the ionotropic NMDA receptor. From batches with concentration series of these compounds of general formula I, the IC50 values (concentration of substituted compounds with 50% displacement of radioactive ligand out of its specific bond) were calculated in accordance with the law of mass action using non-linear regression. From these IC50 values, the Kj values were calculated in accordance with the Cheng-Prusoff equation (Y. Cheng, W. H. Prusoff, 1973, Biochem. Pharmacol., 22, pp 3099-3108).

Cc1ccccc1C(C1CCCCC1(O)CCc1ccccc1Cl)N1CCCC1.Cl (stereo not drawn) [Example 23, 1-[2-(2-chlorophenyl)ethyl]-2-(pyrrolidine-1-yl-o-tolylmethyl)cyclohexanol, hydrochloride]
Percentage inhibition of (3H)-(+)-MK801 binding at 10 μM [1]: 101% | Ki [1]: 400 nM | melting point: 155 °C

CN(C)C(c1ccccc1Cl)C1CCCCC1(O)CCc1ccccc1F.Cl (stereo not drawn) [Example 10, 2-[(2-chlorophenyl)dimethylaminomethyl]-1-[2-(2-fluorophenyl)ethyl]cyclohexanol, hydrochloride]
Percentage inhibition of (3H)-(+)-MK801 binding at 10 μM [1]: 102% | Ki [1]: 400 nM | melting point: 162 to 163 °C

Cc1ccccc1C(C1CCCCC1(O)CCc1ccccc1Cl)N(C)C.Cl (stereo not drawn) [Example 15, 1-[2-(2-chlorophenyl)ethyl]-2-(dimethylamino-o-tolylmethyl)cyclohexanol, hydrochloride]
Percentage inhibition of (3H)-(+)-MK801 binding at 10 μM [1]: 100% | Ki ([1]; hydrochloride): 700 nM | melting point: 190 to 194 °C
